Data from patent US9388468B2, “Truncated CD20 protein, deltaCD20” (ETABLISSEMENT FRANCAIS DU SANG (EFS), priority 2008, dated 2016).

Tested on: RMAS-HHD cells
Experiment: T cytotoxic response (CTL) induction by peptide vaccination, 51Cr release specific lysis
Assay type: in vivo
Experimental: The immunogenicity of the ΔCD20a peptides was evaluated by generating CTL on HLA-A2/DR1 and Knock-Out (KO) transgenic mice for H-2 class I and II.
The mice (4 per group) are immunised with pools of 2 or 3 peptides (2 injections at the base of the tail at an 8-day interval) with: 50 μg of each peptide, 100 μg of helper peptide (20 mers peptide from CMV-specific pp65), the whole co-emulsified with incomplete Freud adjuvant.
Seven days after the second immunisation, the spleens of the mice are removed and the splenocytes are re-stimulated in vitro with 4 μg/ml of each peptide separately. On the fifth day of culture, the respondent populations are tested to determine specific cytotoxicity. The cells, with conclusive cytotoxicity, are re-stimulated in vitro at one-week intervals to obtain specific CTLs.
RMAS-HHD cells are used as targets to study cytotoxicity. These target cells are filled with 10 μg/ml of the peptide under test, or a non-relevant control peptide, at 37° C. for 90 minutes and labelled with 100 μCi of 51Cr for 90 minutes, and washed three times. […] After incubation, 50 μl of supernatant is collected, transferred into specific plates (Lumaplate) and the radioactivity is measured in a γ counter. The specific lysis percentage is calculated using the formula: [(experimental 51 Cr release−spontaneous 51 Cr release)/(maximum 51 Cr release−spontaneous 51 Cr release)]×100.

## peptide No. 4: ΔCD20-specific peptide overlapping the alternative splicing junction zone, restricted for HLA-A*0201; probably SEQ ID NO: 9 (RMSSLELVI)
Immunisation group A, 4 mice per group, 2 injections of 50 μg of each peptide, splenocytes re-stimulated in vitro
  mice that developed T cytotoxic response against the peptide: Three out of 4
Targets charged with 10 μg/ml peptide, not cells charged with non-relevant peptide
  CTLs generated by immunisation killing peptide-charged RMAS-HHD targets: generates CTLs killing RMAS-HHD targets charged with said peptide
